Assay results as given in US10214531B2 (Institute for Drug Discovery, LLC, priority 2013, dated 2019).
Structures can show the parent of a compound that is named as a salt.

Each compound was assayed against recombinant human AMCase (Homo sapiens, UniProt Q9BZP6) (assay: Human AMCase Activity Assay). Details: recombinant hAMCase, 4-methylumbelliferyl chitobioside substrate, citrate buffer pH 5.2, 37° C., 60 minutes; read-out: Activity (IC50 value key).
Type: biochemical
Outline: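 Recombinant human enzyme with fluorogenic 4-methylumbelliferyl β-D-N,N′-diacetylchitobioside substrate in citrate buffer, pH 5.2, 60 min at 37 °C in the dark with shaking. Read-out is 4MU fluorescence at 460 nm.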

Sequence of recombinant human AMCase (Q9BZP6 22-476): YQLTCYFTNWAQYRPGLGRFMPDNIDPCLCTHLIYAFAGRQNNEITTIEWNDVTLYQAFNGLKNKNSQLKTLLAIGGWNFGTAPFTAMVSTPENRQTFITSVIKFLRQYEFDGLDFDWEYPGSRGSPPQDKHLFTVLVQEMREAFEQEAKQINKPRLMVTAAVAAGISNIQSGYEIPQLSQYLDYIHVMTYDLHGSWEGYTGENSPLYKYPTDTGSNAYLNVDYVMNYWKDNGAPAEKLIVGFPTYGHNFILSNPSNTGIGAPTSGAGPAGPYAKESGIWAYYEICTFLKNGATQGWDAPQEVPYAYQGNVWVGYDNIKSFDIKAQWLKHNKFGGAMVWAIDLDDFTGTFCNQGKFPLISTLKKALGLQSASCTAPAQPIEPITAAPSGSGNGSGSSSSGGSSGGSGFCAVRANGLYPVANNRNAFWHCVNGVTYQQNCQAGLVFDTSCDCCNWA

Row | IC50 [µM] | Compound
1 | < 0.1 | Nc1nc(N2CCC(N(CCc3ccc(Cl)cc3)Cc3cccc(Cl)c3)CC2)n[nH]1 [Example 110, 1-(3-amino-1H-1,2,4-triazol-5-yl)-N-(3-chlorobenzyl)-N-(4-chlorophenethyl) piperidin-4-amine dihydrochloride]
2 | < 0.1 | CC(C)(C)CN(CCc1ccc(Cl)cc1)C1CCN(c2nc(N)n[nH]2)CC1 [Example 94, 1-(3-amino-1H-1,2,4-triazol-5-yl)-N-(4-chlorophenethyl)-N-neopentyl-piperidin-4-amine dihydrochloride]
3 | 0.1 to 1 | C[C@@H](CN1CCN(c2nc(N)n[nH]2)CC1)Oc1ccc(Br)cc1 [Example 62, (S)-5-(4-(2-(4-bromophenoxy)propyl)piperazin-1-yl)-1H-1,2,4-triazol-3-amine]
4 | > 100 | Nc1n[nH]c(N2CCN(CCOc3ccccc3)CC2)n1 [Example 78, 5-(4-(2-phenoxyethyl)piperazin-1-yl)-1H-1,2,4-triazol-3-amine]
5 | < 0.1 | Nc1n[nH]c(N2CCC(N(CCc3ccc(Br)cc3)Cc3ccc(F)c4ccccc34)CC2)n1 [Example 167, 1-(3-amino-1H-1,2,4-triazol-5-yl)-N-(4-bromophenethyl)-N-((4-fluoronaphthalen-1-yl)methyl)piperidin-4-amine]
6 | 1 to 10 | CN(CCc1ccc(Cl)cc1)C1CCN(c2nc(N)n[nH]2)CC1F (centres unmarked) [Example 150, 1-(3-amino-1H-1,2,4-triazol-5-yl)-N-(4-chlorophenethyl)-3-fluoro-N-methylpiperidin-4-amine]
7 | > 100 | C[C@@H](Oc1ccc(Br)cc1)C(=O)N1CCN(c2nc(N)n[nH]2)CC1 [Example 6, (R)-1-(4-(3-amino-1H-1,2,4-triazol-5-yl)piperazin-1-yl)-2-(4-bromophenoxy)propan-1-one]
8 | 10 to 100 | COC[C@@H](c1ccccc1)N(CCc1ccc(Cl)cc1)C1CCN(c2nc(N)n[nH]2)CC1 [Example 109]
9 | > 100 | COc1ccc(CNC(=O)C2CCN(c3nc(N)n[nH]3)CC2)cc1 [Example 206, 1-(3-amino-1H-1,2,4-triazol-5-yl)-N-(4-methoxybenzyl)piperidine-4-carboxamide]
10 | < 0.1 | CC(C)(C)CCN(CCc1ccc(Cl)cc1)C1CCN(c2nc(N)n[nH]2)CC1 [Example 93, 1-(3-amino-1H-1,2,4-triazol-5-yl)-N-(4-chlorophenethyl)-N-(3,3-dimethylbutyl) piperidin-4-amine]
11 | 1 to 10 | CC(Cc1ccc(Br)cc1)CN1CCN(c2nc(N)n[nH]2)CC1 (centres unmarked) [Example 39, 5-(4-(3-(4-bromophenyl)-2-methylpropyl)piperazin-1-yl)-1H-1,2,4-triazol-3-amine dihydrochloride]
12 | 0.1 to 1 | CCCC1CN(c2nc(N)n[nH]2)CCC1NCCc1ccc(Cl)cc1 (single isomer, unassigned) [Example 231, 1-(3-amino-1H-1,2,4-triazol-5-yl)-N-(4-chlorophenethyl)-3-propylpiperidin-4-amine]
13 | > 100 | Nc1n[nH]c(N2CCC(C(=O)NCc3ccc(F)c(F)c3)CC2)n1 [Example 199, 1-(3-amino-1H-1,2,4-triazol-5-yl)-N-(3,4-difluorobenzyl)piperidine-4-carboxamide]
14 | < 0.1 | Nc1n[nH]c(N2CCC(N(CCc3ccc(Cl)cc3)Cc3ccc(C(F)(F)F)cc3)CC2)n1 [Example 104, 1-(3-amino-1H-1,2,4-triazol-5-yl)-N-(4-chlorophenethyl)-N-(4-(trifluoromethyl)benzyl)piperidin-4-amine]
15 | > 100 | CC(Oc1ccccc1F)C(=O)N1CCN(c2nc(N)n[nH]2)CC1 (centres unmarked) [Example 44, 1-(4-(3-amino-1H-1,2,4-triazol-5-yl)piperazin-1-yl)-2-(2-fluorophenoxy)propan-1-one]
16 | > 100 | Nc1n[nH]c(N2CCC(CNC(=O)c3cc(Br)cc(Br)c3)CC2)n1 [Example 209, N-((1-(3-amino-1H-1,2,4-triazol-5-yl)piperidin-4-yl)methyl)-3,5-dibromobenzamide]
17 | > 100 | Nc1n[nH]c(N2CCN(C(=O)COc3ccccc3)CC2)n1 [Example 30, 1-(4-(3-amino-1H-1,2,4-triazol-5-yl)piperazin-1-yl)-2-phenoxyethanone]
18 | > 100 | CCc1ccc(OC(C)C(=O)N2CCN(c3nc(N)n[nH]3)CC2)cc1 (centres unmarked) [Example 31, 1-(4-(3-amino-1H-1,2,4-triazol-5-yl)piperazin-1-yl)-2-(4-ethylphenoxy)propan-1-one]
19 | > 100 | Nc1n[nH]c(N2CCC(NC(=O)Nc3cc(Cl)c(Cl)cc3Cl)CC2)n1 [Example 217, 1-(1-(3-amino-1H-1,2,4-triazol-5-yl)piperidin-4-yl)-3-(2,4,5-trichlorophenyl)urea]

Second part, the compound before the results:

Row | Compound | IC50 [µM]
20 | CC1CN(c2nc(N)n[nH]2)CCC1N(C)CCc1ccc(Br)cc1 (centres unmarked) [Example 230, 1-(3-amino-1H-1,2,4-triazol-5-yl)-N-(4-bromophenethyl)-N,3-dimethylpiperidin-4-amine dihydrochloride] | 0.1 to 1
21 | CCOc1ccc(CN2CCN(c3nc(N)n[nH]3)CC2)cc1 [Example 3, 5-(4-(4-ethoxybenzyl)piperazin-1-yl)-1H-1,2,4-triazol-3-amine] | > 100
22 | COc1ccccc1CCN(C)C1CCN(c2nc(N)n[nH]2)CC1 [Example 172, 1-(3-amino-1H-1,2,4-triazol-5-yl)-N-(2-methoxyphenethyl)-N-methylpiperidin-4-amine] | 10 to 100
23 | CC(C)c1ccccc1OCCN1CCN(c2nc(N)n[nH]2)CC1 [Example 84, 5-(4-(2-(2-isopropylphenoxy)ethyl)piperazin-1-yl)-1H-1,2,4-triazol-3-amine] | 10 to 100
24 | Nc1n[nH]c(N2CCC(N(CCc3ccc(Cl)cc3)CCc3ccc(Cl)cc3)CC2)n1 [Example 162, 1-(3-amino-1H-1,2,4-triazol-5-yl)-N,N-bis(4-chlorophenethyl)piperidin-4-amine] | < 0.1
25 | Nc1n[nH]c(N2CCC(CNC(=O)c3cccc(Br)c3)CC2)n1 [Example 69, N-((1-(3-amino-1H-1,2,4-triazol-5-yl)piperidin-4-yl)methyl)-3-bromo benzamide] | > 100
26 | CC(CN1CCN(c2nc(N)n[nH]2)CC1)Oc1ccc(Br)cc1 (centres unmarked) [Example 20-1, 5-(4-(2-(4-bromophenoxy)propyl)piperazin-1-yl)-1H-1,2,4-triazol-3-amine] | 10 to 100
27 | Nc1n[nH]c(N2CCC(N(CCc3ccc(Cl)cc3)Cc3ccc4ccccc4c3)CC2)n1 [Example 112, 1-(3-amino-1H-1,2,4-triazol-5-yl)-N-(4-chlorophenethyl)-N-(naphthalen-2-ylmethyl) piperidin-4-amine] | < 0.1
28 | Cc1ccc(C)c(OC(C)C(=O)N2CCN(c3nc(N)n[nH]3)CC2)c1 (centres unmarked) [Example 34, 1-(4-(3-amino-1H-1,2,4-triazol-5-yl)piperazin-1-yl)-2-(2,5-dimethylphenoxy)propan-1-one] | > 100
29 | Nc1n[nH]c(N2CCC(N(CCc3ccc(Cl)cc3)[C@H](CO)c3ccccc3)CC2)n1 [Example 135, (S)-2-((1-(3-amino-1H-1,2,4-triazol-5-yl)piperidin-4-yl)(4-chlorophenethyl)amino)-2-phenylethan-1-ol] | < 0.1
30 | CN(C1CCN(c2nc(N)n[nH]2)CC1)[C@H](CO)Cc1ccc(Cl)cc1 [Example 153, (S)-2-((1-(3-amino-1H-1,2,4-triazol-5-yl)piperidin-4-yl)(methyl)amino)-3-(4-chlorophenyl)propan-1-ol] | 0.1 to 1
31 | C[C@H](Oc1ccc(Br)cc1)C(=O)N1CCN(c2nc(N)n[nH]2)CC1 [Example 7, (S)-1-(4-(3-amino-1H-1,2,4-triazol-5-yl)piperazin-1-yl)-2-(4-bromophenoxy)-propan-1-one] | > 100
32 | Nc1n[nH]c(N2CCC(C(=O)NCc3ccccc3Cl)CC2)n1 [Example 198, 1-(3-amino-1H-1,2,4-triazol-5-yl)-N-(2-chlorobenzyl)piperidine-4-carboxamide] | > 100
33 | Nc1n[nH]c(N2CCNCC2)n1 [Example 38, 5-(piperazin-1-yl)-1H-1,2,4-triazol-3-amine trihydrochloride] | > 100
34 | CC(CCc1ccc(Br)cc1)N1CCN(c2nc(N)n[nH]2)CC1 (centres unmarked) [Example 19, 5-(4-(4-(4-bromophenyl)butan-2-yl)piperazin-1-yl)-1H-1,2,4-triazol-3-amine] | 10 to 100
35 | CCC(Oc1ccc(Br)cc1)C(=O)N1CCN(c2nc(N)n[nH]2)CC1 (centres unmarked) [Example 5, 1-[4-(3-amino-1H-1,2,4-triazol-5-yl)piperazin-1-yl]-2-(4-bromophenoxy)butan-1-one] | > 100
36 | Nc1n[nH]c(N2CCC(C(=O)NCc3ccc(Cl)cc3)CC2)n1 [Example 52, 1-(3-amino-1H-1,2,4-triazol-5-yl)-N-(4-chlorobenzyl)piperidine-4-carboxamide] | > 100
37 | CC(C)(Oc1ccc(Cl)cc1)C(=O)N1CCN(c2nc(N)n[nH]2)CC1 [Example 258, 1-(4-(3-amino-1H-1,2,4-triazol-5-yl)piperazin-1-yl)-2-(4-chlorophenoxy)-2-methylpropan-1-one] | > 100
38 | Nc1n[nH]c(N2CCC(N(CCc3ccc(Cl)cc3)Cc3ccc(F)c4ccccc34)CC2)n1 [Example 144, 1-(3-amino-1H-1,2,4-triazol-5-yl)-N-(4-chlorophenethyl)-N-((4-fluoronaphthalen-1-yl)methyl)piperidin-4-amine] | < 0.1
39 | Cc1oc(C(F)(F)F)cc1CNC(=O)C1CCN(c2nc(N)n[nH]2)CC1 [Example 202, 1-(3-amino-1H-1,2,4-triazol-5-yl)-N-((2-methyl-5-(trifluoromethyl)furan-3-yl)methyl)piperidine-4-carboxamide] | > 100
40 | Cc1cccc(Cl)c1CN(CCc1ccc(Cl)cc1)C1CCN(c2nc(N)n[nH]2)CC1 [Example 161, 1-(3-amino-1H-1,2,4-triazol-5-yI)-N-(2-chloro-6-methylbenzyl)-N-(4-chlorophenethyl)piperidin-4-amine] | < 0.1
41 | Nc1n[nH]c(N2CCN(CCOc3ccc(Cl)c4ccccc34)CC2)n1 [Example 23, 5-(4-(2-((4-chloronaphthalen-1-yl)oxy)ethyl)piperazin-1-yl)-1H-1,2,4-triazol-3-amine] | 1 to 10
